Experimental data reported in ChEMBL document CHEMBL4765410, “A cell-penetrant lactam-stapled peptide for targeting eIF4E protein-protein interactions” (Eur J Med Chem, 2020).
pIC50, pKd: −log10 of the molar value. Active and inactive are the calls of the source. No cut-off for these calls is given here. Bridge positions count the residues as written; N and C are the ends. Peptide text beside a SMILES is read from it.

Legend:
[1] = biological target: T1, EIF4E/EIF4G1 (Homo sapiens) (UniProt P06730+Q04637); test: Inhibition of eIF4E/eIF4G interaction in human MCF7 cells incubated for 6 hr by m7GDP cap pull down assay; format: cell-based
MCF7 = test: Anti-proliferative activity against human MCF7 cells after 6 days by CellTiter-Glo assay; format: functional, cell-based; conditions: time 6.0 day
[2] = biological target: T1, EIF4E/EIF4G1 (Homo sapiens); test: Inhibition of eIF4E/eIF4G interaction in human T47D cells incubated for 6 hr by m7GDP cap pull down assay; format: cell-based
[3] = Drug uptake in cytosol of human HeLa cells stably expressing Halo-tagged-GFP assessed as normalized fluorescence in cytosol at 0.74 uM incubated for 4 hrs by flow cytometry based CAPA relative to control; format: ADME, subcellular
[4] = biological target: T2, Eukaryotic translation initiation factor 4E (Homo sapiens, UniProt P06730); test: Binding affinity to recombinant human 10His-tagged eIF4E expressed in Escherichia coli BL21 (DE3) cells assessed as association constant by surface plasmon resonance analysis
T2 sequence (P06730 whole entry): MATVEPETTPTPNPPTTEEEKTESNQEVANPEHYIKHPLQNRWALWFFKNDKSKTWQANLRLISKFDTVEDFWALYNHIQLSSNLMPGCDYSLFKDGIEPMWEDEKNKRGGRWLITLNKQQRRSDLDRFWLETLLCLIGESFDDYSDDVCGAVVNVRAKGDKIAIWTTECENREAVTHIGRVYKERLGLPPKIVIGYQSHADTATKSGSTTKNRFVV

[5] = biological target: T1, EIF4E/EIF4G1 (Homo sapiens); test: Inhibition of eIF4E/eIF4G interaction in human MDA-MB-231 cells incubated for 6 hr by m7GDP cap pull down assay; format: cell-based
[6] = biological target: T2, Eukaryotic translation initiation factor 4E; test: Binding affinity to recombinant human 10His-tagged eIF4E expressed in Escherichia coli BL21 (DE3) cells assessed as binding constant by surface plasmon resonance analysis
MDA-MB-231 = test: Anti-proliferative activity against human MDA-MB-231 cells after 6 days by CellTiter-Glo assay; format: functional, cell-based; conditions: time 6.0 day
T47D = test: Anti-proliferative activity against human T47D cells after 6 days by CellTiter-Glo assay; format: functional, cell-based; conditions: time 6.0 day
[7] = biological target: T2, Eukaryotic translation initiation factor 4E; test: Inhibition of recombinant human 10His-tagged eIF4E expressed in Escherichia coli BL21 (DE3) cells by catalytic enzyme-linked click chemistry assay
[8] = Drug uptake in cytosol of human HeLa cells stably expressing Halo-tagged-GFP assessed as normalized fluorescence in cytosol incubated for 4 hrs by flow cytometry based CAPA; format: ADME, subcellular
[9] = biological target: T2, Eukaryotic translation initiation factor 4E; test: Inhibition of eIF4E in human MCF7 cells measured up to 42 hrs by m7GDP cap pull down assay; format: cell-based; conditions: time hrs <=42
[10] = biological target: T2, Eukaryotic translation initiation factor 4E; test: Binding affinity to eIF4E in HEK293 cell lysates assessed as thermal stabilization of protein at 1 to 15 uM incubated for 1 hrs followed by heating at 49 to 52.4 degC for 3 mins by CETSA-based Western blot analysis; format: subcellular; conditions: dose 1-15 µM

inhibition [1]	inhibition [2]	Drug uptake [3]	Ka [4]	inhibition [5]	pKd [6]	pIC50 [7]	Q50 [8]	Activity [9]	Activity [10]	SMILES	Activity (MCF7)	Activity (MDA-MB-231)	Activity (T47D)
Dose-dependent effect	Dose-dependent effect	20%	3.1e+06 M⁻¹ s⁻¹	Dose-dependent effect	8.66	8.19	1.5 µM	Active	Active	CC[C@H](C)[C@H](NC(=O)[C@H](CCCNC(=N)N)NC(C)=O)C(=O)N[C@H](C(=O)N[C@@H](Cc1ccc(O)cc1)C(=O)N[C@@H](CC(=O)O)C(=O)N[C@@H](CCCNC(=N)N)C(=O)N[C@H]1CCC(=O)NCCCC[C@@H](C(=O)N[C@@H](CS)C(=O)N[C@@H](CCCNC(=N)N)C(N)=O)NC(=O)[C@H](CCSC)NC(=O)[C@H](CC(C)C)NC(=O)[C@H](Cc2ccccc2)NC1=O)[C@@H](C)CC (Ac-RIIYDREFLMKCR-NH2; lactam 7-11)	inactive	inactive	inactive
–	–	84%	580000 M⁻¹ s⁻¹	–	8.14	7.66	0.25 µM	–	inactive	CC[C@H](C)[C@H](NC(=O)[C@H](CCCNC(=N)N)NC(C)=O)C(=O)N[C@H](C(=O)N[C@@H](Cc1ccc(O)cc1)C(=O)N[C@@H](CC(=O)O)C(=O)N[C@@H](CCCNC(=N)N)C(=O)N[C@H]1CCCCNC(=O)CC[C@@H](C(=O)N[C@@H](CS)C(=O)N[C@@H](CCCNC(=N)N)C(N)=O)NC(=O)[C@H](CCSC)NC(=O)[C@H](CC(C)C)NC(=O)[C@H](Cc2ccccc2)NC1=O)[C@@H](C)CC (Ac-RIIYDRKFLMECR-NH2; lactam 7-11)	–	–	–
–	–	–	630000 M⁻¹ s⁻¹	–	–	–	–	–	–	CC[C@H](C)[C@H](NC(=O)[C@H](CCCNC(=N)N)NC(=O)[C@@H](NC(=O)CNC(C)=O)[C@@H](C)O)C(=O)N[C@H](C(=O)N[C@@H](Cc1ccc(O)cc1)C(=O)N[C@@H](CC(=O)O)C(=O)N[C@@H](CCCNC(=N)N)C(=O)N[C@@H](CCCCN)C(=O)N[C@@H](Cc1ccccc1)C(=O)N[C@@H](CC(C)C)C(=O)N[C@@H](CCSC)C(=O)N[C@@H](CCC(=O)O)C(=O)N[C@@H](CS)C(=O)N[C@@H](CCCNC(=N)N)C(=O)N[C@@H](CC(N)=O)C(N)=O)[C@@H](C)CC	–	–	–
